`OCCNCCOc1ccc2cc3ccc(OCCNCCO)cc3nc2c1` gave a melting point of 125 to 127 °C.
`COc1cccc([C@H]2O[C@H](CC(=O)Nc3cccc(C(=O)O)c3C)C(=O)N(CC(C)(C)COC(C)=O)c3ccc(Cl)cc32)c1OC` displayed a melting point of 139 to 142 °C.
The molecule `O=C(O)Cc1cc(F)ccc1Sc1ccccc1` yielded a melting point of 80 to 83 °C.
In turn, `O=C(O)CCc1ccccc1C(=O)NCCc1ccccc1` had a melting point of 106 to 108 °C.
As for `Cc1cc(CNC(=O)c2cc(-c3ccc(-c4ccccc4C)cc3)nn2C)ccc1OC(C)(C)C(=O)O`, the figure is 90 to 100 °C; as for `CC(=O)N1c2ccc(-c3nnn[nH]3)cc2C(Nc2ccc(Cl)cc2)CC1C` (stereo not given), 190 to 191 °C.
As for `C[Si](C)(C)Sc1ncn([Si](C)(C)C)n1`, the figure is 90 to 94 °C; as for `CCCc1c(OCCCCCC(=O)NCCCCc2cncnc2)ccc(C(C)=O)c1O`, 87 to 89 °C; as for `Cc1ccc(N2CN(c3ccccc3)C3=NN=CC3=C2N)cc1`, 248 to 250 °C.
As for `O=C1c2ccccc2C(=O)N1CC(=CF)CBr`, the figure is 86 to 87 °C; as for `COc1cc(-c2n[nH]c(N)n2)c(OC)cc1C`, 248 °C.
As for `O=C(Oc1ccc(O)cc1)c1ccc(O)cc1`, the melting point lay in the range of 242 to 245 °C.
To `COc1cc2nc(Cl)nc(N)c2c(OC)c1OC` belongs 138 to 140 °C; to `CCCOc1ccnc2[nH]cc(C(C)=O)c12`, more than 210 °C.
As for `COc1ccc2c(-c3cnc4[nH]cc(C(=O)N[C@H](C)C(=O)N5CC(C#N)C5)c4n3)nn(C)c2c1`, the melting point was 220 to 240 °C.
To `CCC12CCC3C4CCC(=O)C=C4CC(C)C3C1CCC2O` (stereo not given) belongs 152 to 154 °C.
Consider `O=S(=O)(Cl)c1ccc(Oc2ccc(Cl)cc2)cc1`, for which the melting point was determined as 61 °C.
To `CC(C)S(=O)(=O)c1cc(C#N)c(N)c(OCCc2ccccn2)c1` belongs 122 to 123 °C.
To `Cc1ccc2c(=O)cc[nH]c2c1[N+](=O)[O-]` belongs more than 250 °C; to `CCSc1cc(C)nc(SCC)c1NC(=O)CSc1nc2cccc(S(C)(=O)=O)c2o1`, 159 to 162 °C.
As for `CC(=O)Nc1cc(NC(C)=C2C(=O)OC(=O)C(C(C)=O)=C2O)cc([N+](=O)[O-])c1`, the figure is more than 270 °C; as for `CC1OOC2(/C=C\c3ccc(C(F)(F)F)cc3C(F)(F)F)CC1CC(=O)C2C` (stereo not given), 124 °C.
The molecule `CC[C@@H](C(N)=O)n1nnc2cc(Br)ccc21` came in with a melting point of 205 to 207 °C.
`Cn1c(COc2ccc(CC3SC(=O)NC3=O)cc2)nc2ccc(Oc3ccc4cccc(NC(=O)NS(=O)(=O)c5ccccc5)c4c3)cc21` (stereo not given) returned a melting point of 199 to 205 °C.
For `Cc1ccc(NC(=O)NN2CCN(CCc3c[nH]c4ccccc34)CC2)cc1`, the melting point was in the range of 201 to 203 °C.
Regarding `O=C(O)CCN1CCN(c2ccc(F)cc2)CC1`, the melting point was 178 to 180 °C.
As for `O=[N+]([O-])c1ccc(Oc2cc(Cl)c(Cl)cc2Cl)c(Cl)c1Oc1ccccc1`, the figure is 112 °C; as for `N#Cc1ccc(C(=O)c2cc(C(F)(F)F)ccc2O)cc1`, 118 °C.
To `c1ccc2c(-n3cncn3)ccnc2c1` belongs 147 to 149 °C.
As for `CC(=O)OC1CCC2(C)C(CCC3=C4C(=O)CC(C(C)CCC=C(C)C)C4(C)CCC32)C1` (stereo not given), the figure is 129 to 130 °C; as for `N#CC(CCc1ccc(Cl)cc1)(c1ccccc1)c1cccnc1` (stereo not given), 83 to 84 °C; as for `COc1ccc(C(NCC(C)c2ccccc2)c2cccc(Nc3c(N)c(=O)c3=O)c2)cc1` (stereo not given), 192 to 194 °C.
`CCOC(=O)C1(CC(=O)O)C(=O)C=C(OCc2ccccc2)CC1c1ccc(C)cc1` (stereo not given) came in with a melting point of 217 °C.
As for `Cc1ccc2c(N3CCN(CCc4cccc(N5CCNC5=O)c4)CC3)cccc2n1`, the figure is 164 °C; as for `O=C(Nc1cccnc1NCC(O)c1ccccc1)c1ccc(Cl)cc1` (stereo not given), 157 to 159 °C.
As for `COc1ccc(S(=O)(=O)c2sc(S(N)(=O)=O)cc2C)cc1`, the figure is 140 to 143 °C; as for `Nc1ncc(CN2CCN(c3ccccc3)CC2)c(N)n1`, 263 to 265 °C; as for `CC(C)NC(=O)CC(CC1(C(=O)N[C@H]2CCc3ccccc3N(CC(=O)O)C2=O)CCCC1)C(=O)O` (stereo not given in full), 145 °C.
To `Cc1ccsc1-c1nc(CCl)co1` belongs 95 to 96 °C; to `CCCCCCOC(=O)C=Nc1cc(Cl)ccc1C(=O)O`, 99 °C; to `COc1ccc(C=C(NC(=O)c2ccccc2)C(=O)O)cc1OC`, 196 to 198 °C.
In turn, `NC(=O)C(=O)CCCCl` returned a melting point of 87 °C.
To `NC(=O)c1ccc(-c2ccc(N)cc2)cc1` belongs 281 to 284 °C; to `O=C(c1ccc(F)cc1)c1c(OCc2ccccc2)c(=O)ccn1CCO`, 182 to 183 °C; to `CS(=O)(=O)N1CCCn2c(nc3c(N)nc4cc(OCc5ccccc5)ccc4c32)C1`, 235 to 236 °C.
As for `O=C(Nc1nccs1)C(CC1CCCC1)c1cccc(S(=O)(=O)C(F)(F)F)c1` (stereo not given), the figure is 61 to 64 °C; as for `CN1Cc2c(-c3nc(CN(CC4CC4)CC4CC4)no3)ncn2-c2ccccc2C1=O`, 170 to 174 °C.
As for `O=S(=O)(/C=C/c1ccc(Cl)cc1)Nc1ccccc1Cl`, the figure is 107 to 109 °C.
On to `NC(=O)Cc1c[nH]c2cc(OCc3ccccc3)ccc12`, for which the melting point is 189 to 192 °C.
Molecule `O=C(O)C(CC=Cc1ccccc1)Cc1cccc2ccccc12` (stereo not given) returned a melting point of 135 to 137 °C.
To `CC(=O)N(C(C)=O)n1c(=O)[nH]c2ccccc2c1=O` belongs 210 °C.
In the case of `O=C(O)CCC(=NOCc1ccc(OCc2cn3c(Cl)cccc3n2)cc1)c1ccccc1`, the melting point was in the range of 160 to 161 °C.
To `Cc1cccc(-c2nc(CCOc3ccc(C=CC=C4OC(=O)NC4=O)cc3)c(C)o2)c1` belongs 213 to 214 °C; to `CC1(C)COc2cc3c(cc21)C1(CO3)C(=O)Nc2ccccc21` (stereo not given), 95 to 100 °C; to `C1CCc2c(c(N3CCCC3)nn3nnnc23)C1`, 272 to 273 °C.
As for `Clc1ccccc1-n1nnnc1Cl`, the figure is 101 to 103 °C.
To `O=C(O)CCC(C(=O)O)N1C(=O)c2ccccc2C1=S` (stereo not given) belongs 157 °C; to `CCCCCCC/C=C/C(=O)NCCN1CCCC1`, 56 to 58 °C.
`Nc1ccccc1-n1sc(-c2ccccc2)cc1=O` registered a melting point of 145 to 146 °C.
As for `[N-]=[N+]=NC1CCc2ccccc2NC1=O` (stereo not given), the figure is 142 to 145 °C.
To `CCOC(=O)C1=C(C)Nc2ccnc(OC(C)C)c2C1c1ccccc1C(F)(F)F` (stereo not given) belongs 130 to 131 °C; to `Oc1ccc(Nc2n[nH]c3ncnc(Nc4cccc(Cl)c4)c23)cc1`, more than 260 °C.
As for `CN1C(=O)CC[C@]2(C)c3ccc(Sc4nc5cc([N+](=O)[O-])ccc5s4)cc3CC[C@@H]12`, the figure is 96 to 100 °C; as for `CC(C)c1ccc(S(=O)(=O)Nc2ccc(Cl)cc2I)cc1`, 149 °C; as for `Cc1ccc2cccc(OCc3c(Cl)ccc(S(N)(=O)=O)c3Cl)c2n1`, 206 to 208 °C.
In turn, `CCOC(=O)CCNC(=O)Nc1cc(-c2ccc3cc(NS(C)(=O)=O)ccc3c2)c(OC)c(C(C)(C)C)c1` returned a melting point of more than 300 °C.
For the molecule `CC(=O)OCC1OC(n2c(Br)nc3cc(Cl)c(Cl)cc32)C(OC(C)=O)C1OC(C)=O` (stereo not given), the melting point was less than 65 °C.
As for `Cc1cccc(-c2n[nH]cc2-c2ccc(F)c(-c3cnn(C)c3)c2)n1`, the figure is 155 to 156 °C.
As for `Cc1ccccc1CC(=NC#N)NC(NC(=O)Cc1ccc2ncccc2c1)C(C)(C)C` (stereo not given), the figure is 172 to 173 °C; as for `O=C(CO)OC(=O)CCS`, 143 to 144 °C.
To `CNC(=S)Nc1ccccc1` belongs 113 °C; to `O=C1CCCCc2ccc([N+](=O)[O-])cc21`, 88 to 89 °C; to `O=C(Cl)c1cccnc1Nc1cccc(Cl)c1`, 112 to 115 °C.
As for `CC(C)CCCC(C)C1CCC2C3CCC4CC(OC(=O)c5ccccc5)CCC4(C)C3CCC12C` (stereo not given), the melting point fell in the range of 215 to 216 °C.
As for `CC(=O)Nc1ccc(F)cc1-c1ccc(Cl)c(Cl)c1`, the figure is 138 to 140 °C; as for `Cn1cc(-c2ccccc2)c(=O)c(-c2ccc(Br)cc2)c1`, 172 °C.
`Cc1c(C(=O)C=Cc2ccccc2F)c2ccccc2n1CCN1CCOCC1` came in with a melting point of 113 to 116 °C.
To `c1ccc(P(c2ccccc2)c2cccc3c2-c2c(cccc2P(c2ccccc2)c2ccccc2)OCCCO3)cc1` belongs 85 °C.
To `O=C(O)c1ccc(OCC2CCCC2Nc2ccc(Cl)cc2)cc1` (stereo not given) belongs 153 to 156 °C; to `CS(=O)(=O)c1ncnn1C[C@]1(c2ccccc2Cl)O[C@@H]1c1ccc(Cl)cc1Cl` (relative stereo), 129 to 133 °C.
As for `Cc1cc(=O)n(-c2cc(OC(C)C)c(Cl)cc2F)c(=O)n1C`, the figure is 149 to 151 °C; as for `COc1ccccc1C(c1cccc2ccccc12)C(C)(C#N)C#N` (stereo not given), 175 to 177 °C.
`CCOCCOc1ccc(-c2ccc3c(c2)C=C(C(=O)OC)CCN3)cc1` gave a melting point of 102 to 108 °C.
Molecule `CC(C)(C)n1c(=O)[nH]c2ccccc2c1=O` came in with a melting point of 218 to 220 °C.
For the molecule `OCc1ccc2cc(-c3nnc(CSCCOc4ccccc4)o3)ccc2c1`, the melting point lay within 132 to 133 °C.
To `O=C(O)/C=C/C=C/C=C/C1=Cc2ccccc2OC1` belongs 206 to 208 °C; to `CCCCCCCC(=N)NC(=O)Nc1ccc(Cl)cc1`, 156 to 165 °C.
`CN1C(=O)Cn2c1nc(C(=O)O)c(OCc1ccccc1)c2=O` came in with a melting point of 194 °C.
To `COC(=O)C12CCc3cc(Cl)ccc3C1=NN(C(=O)Nc1ccc(C(F)(F)F)cc1)C2` (stereo not given) belongs 234 to 236 °C; to `CCc1cccc(-c2cn(C)cc(-c3ccccc3)c2=O)c1`, 135 to 137 °C.

One may read the melting point as the temperature of the solid-liquid transition.

The values above are taken from a melting point compilation (Tetko et al.; mined from patent text by program, amines drawn as free bases though some values may be those of a salt).
